# Data: patent US10189803B2, “Synthesis of therapeutic and diagnostic drugs centered on regioselective and stereoselective ring opening of aziridinium ions” (ILLINOIS INSTITUTE OF TECHNOLOGY, priority 2008, dated 2019)
# Entries after “also recorded” stand apart in the source; their conditions may differ.
# How the values were obtained:
# HT29 cells = experiment: Antiproliferative activity, MTS assay, HT29 cells; assay type: cell-based, Human; conditions: 72 h incubation
# Description: Cell culture Human cervix HeLa cell line was obtained from ATCC (Rockville, Md.) and cultured in minimum essential medium (MEM) with L-glutamine (2 mM), Earle's BSS and sodium bicarbonate (1.5 g/L), supplemented with 10% fetal bovine serum (FBS), non-essential amino acids (0.1 mM), sodium pyruvate (1 mM) and antibiotic/antimycotic solution in a humidified atmosphere with 5% CO2 at 37° C. […] Lung fibroblast MRC-5 cell line was obtained from ATCC (Rockville, Md.) and cultured in ATCC formulated EMEM, supplemented with 10% fetal bovine serum (FBS) in a humidified atmosphere with 5% CO2 at 37° C.
# (§1) Antiproliferative Activity. Cells were seeded onto 96-well plate at density of 2,000 cells for Hela cells or 5,000 cells for HT29 cells or 5,000 cells for MRC-5 per well in 0.1 mL complete medium and allowed to attach for 24 h. Varying concentrations of the test compounds in the final volume of 0.1 mL complete medium were then added in at least five series dilutions and incubated for 72 h. To measure cell proliferation, the Cell Titer 96 aqueous nonreactive cell proliferation assay (Promega Life Sciences, Madison, Wis.) was used according to the manufacturer's instructions. Briefly, MTS (2 mg/mL) and PMS (0.92 mg/ml) were mixed in a ratio of 20:1. An aliquot (20 μL) of the MTS/PMS mixture was added into each well, and the plate was incubated for 3 h at 37° C. Optical absorbance at 490 nm was then recorded with an enzyme-linked immunosorbent assay (ELISA) microtiter plate reader (Biotek). Each experiment was done at least in triplicate. Antiproliferative activity of the test compounds was expressed as the fraction of optical densities of treated the cells relative to the untreated solvent controls.^31 The data were plotted in GraphPad Prizm 3.0. Nonlinear regression analysis was used to determine IC50 values.
# Cell culture. Human cervix HeLa cell line was obtained from ATCC (Rockville, Md.) and cultured in minimum essential medium (MEM) with L-glutamine (2 mM), Earle's BSS and sodium bicarbonate (1.5 g/L), supplemented with 10% fetal bovine serum (FBS), non-essential amino acids (0.1 mM), sodium pyruvate (1 mM) and antibiotic/antimycotic solution in a humidified atmosphere with 5% CO2 at 37° C.
# as §1, with “activity.” for “Activity.”, “cells” for “cells or 5,000 cells for MRC-5”, “controls.” for “controls.^31”
# Hela cells = experiment: Iron saturation experiment, Hela cell growth (MTS); assay type: cell-based, Human
# Description: Cytotoxicity of the new chelators was measured in the HeLa and HT29 cancer cells and compared to that of the clinically used iron chelators DFO and DTPA. […] The preliminary cell culture experiments were performed to see ifNETA is an effective cytotoxic agent. […] In order to investigate the effect of the chelators on the cellular growth, the Hela cancer cells saturated with Fe(III)-citrate (50 μM) were incubated with each of the chelators (50 μM).
# Iron Saturation Experiment Hela Cells were inoculated onto 96-well plates at density of 2,000 per well in 0.1 mL complete medium and incubated for 24 h. […] Control samples containing no ferric citriate were also tested. […] After the incubation, cells proliferation rates were evaluated by MTS assay.
# [1] = In vitro serum stability of radiolabeled C-NE3TA complexes in human serum (SE-HPLC); assay type: in vitro ADME
# Description: C-NE3TA was radiolabeled with ^90Y, ^177Lu, ^203Pb, ^205/6Bi, or ^153Gd as previously described (Chong, H. S.; Milenic, D. E.; Garmestani, K.; Brady, E. D.; Arora, H.; Pfiester, C.; Brechbiel, M. W., Nucl. Med. Biol. 2006, 33, 459-67; Chong H S, Garmestani K, Bryant Jr., L H Milenic D E, Overstreet T, Birch N, Le N, Brady E D, Brechbiel M W. J. Med. Chem. 2006, 49, 2055-2062). In vitro serum stability of the radiolabeled complexes purified via ion-exchange chromatography was performed to determine if C-NE3TA labeled with the radioisotopes remained stable without transchelation or loss of their respective radionuclide in human serum. This was assessed by measuring the transfer of radionuclide from the complex to serum proteins over the course of 11 days.
# In vitro stability of the radiolabeled metal complexes. The stability of the purified radiolabeled complexes was evaluated in human serum (Gemini Bioproducts, Woodland, Calif.) for up to 11 days. The serum stability of the radiolabeled complexes was assessed by measuring the transfer of the radionuclide from each complex to serum proteins using SE-HPLC methods. Radiolabeled complexes were diluted to an appropriate volume that allowed for preparation of multiple samples containing 5-10 μCi and were filter-sterilized using a Millex-GV 0.22 μm filter. This stock solution was then mixed with 1400 μL of sterile normal human serum. Aliquots (200 μL) were drawn and separated into individual tubes for subsequent analysis using aseptic technique. The samples were incubated at 37° C., and at designated intervals, subjected to analysis by SE-HPLC. Samples were loaded onto the HPLC and eluted with PBS, pH 7.4 isocratically at 1 mL/min. […] Radioactivity associated with a transfer to serum proteins generally appeared at ˜6 min.
# [2] = In vitro serum stability of 205/6Bi-DEPA in human serum (SE-HPLC); assay type: in vitro ADME; parameters: Radiolabled Complex, in vitro serum stability (Table 1): unit not given here; conditions: for Radiolabled Complex, in vitro serum stability (Table 1): 37° C.
# Description: The new ligand DEPA was radiolabeled with ^177Lu and ^205/6Bi (a surrogate of ^212Bi and ^213Bi) and the corresponding radiolabeled complexes were evaluated for in vitro serum stability as described previously. For comparison, DOTA was also radiolabeled with ^177Lu. DEPA and DOTA (0.25 M NH4OAc buffer, pH 4.0) was radiolabeled with ^177Lu at 45° C. for 0.5 h to afford ^177Lu-DEPA (Rf=0.6) and ^177Lu-DOTA (Rf=0.4) in the respective radiochemical yield of 90% and 95% as determined by radio-TLC. DEPA (0.25 M NH4OAc buffer, pH 5.0) was successfully radiolabeled with ^205/6Bi at room temperature for 1 h to afford ^205/6Bi-DEPA in 96% yield (radio-TLC). ^177Lu-DOTA, 177Lu-DEPA, and ^205/6Bi-DEPA formed were purified from unbound ^205/6Bi by ion-exchange chromatography using a Chelex-100 column (1 mL volume bed, 100-200 mesh, Na^+ form, Bio-Rad, Richmond, Calif.) eluted with PBS (pH 7.4). In vitro serum stability of the purified radiolabeled complexes was performed to determine if DEPA or DOTA radiolabeled with ^177Lu or ^205/6Bi remained stable without loss of the radionuclide in human serum. This was assessed by measuring the transfer of radionuclide from the complex to serum proteins. […] However, ˜10% of the radioactivity was released from ^177Lu-DOTA over 4 days.
# In vitro serum stability of the radiolabeled metal complexes. An aliquot of 3.7 MBq of the purified ^177Lu-labeled ligands was added to 0.5 mL of mouse serum (Sigma, St. Louis, Mo.) and 0.1% NaN3. The resulting mixture was incubated at 37° C. for 96 h. Aliquots of 2 μL of the resulting mixture were analyzed by radio-TLC and HPLC at different time points, 0, 0.25, 0.5, 1, 2, 4, 6, 24, 48, and 96 h of incubation. The stability of purified ^205/6Bi-DEPA was evaluated in human serum (Gemini Bioproducts, Woodland, Calif.) for 14 days by measuring the transfer of the radionuclide from the complex to serum proteins as monitored by SE-HPLC. Radiolabeled complexes were diluted to an appropriate volume that allowed for preparation of multiple samples containing 5-10 μCi and filter-sterilized using a Millex-GV 0.22 μm filter. 140 μL of this stock solution was then mixed with 1400 μL of sterile normal human serum or saline. Aliquots (200 μL) were drawn and separated into individual tubes for subsequent analysis using aseptic technique. The samples were incubated at 37° C., and at designated intervals, subjected to analysis by SE-HPLC. Samples were loaded onto the HPLC and eluted with PBS, pH 7.4 isocratically at 1 mL/min. […] Radioactivity associated with a transfer to serum proteins generally appeared between ˜4.5-8 min.
# [3] = Biodistribution of 205/6Bi-DEPA in normal athymic mice; assay type: in vivo
# Description: Based on the promising data obtained from the AAIII based spectroscopic complexation kinetics and serum stability experiments, the stability of ^205/6Bi-DEPA was further evaluated by performing a biodistribution study in normal athymic mice as described previously. Blood levels and organ uptake of the radiolabeled complexes in mice were measured at five time points, 0.5, 1, 4, 8, and 24 h post-injection of ^205/6Bi-DEPA. […] Radioactivity that was detected in the blood and the organs was less than 2.44% ID/g at all points. At 24 h post injection, the % ID/g in the kidneys and spleen was 0.36±0.03% and 0.39±0.07%, respectively, which was slightly higher than that observed in other organs.
structure (smiles),measurement,setting,value
O=C(O)CN1CCN(CCN(CC(=O)O)CC(=O)O)CCN(CC(=O)O)CC1 [NETA],IC50,HT29 cells,7.3 ± 1.5 µM
same,anti-proliferative activity compared to DFO,"Hela cells; 50 μM, HeLa",three-fold increased anti-proliferative activity compared to DFO
same,effect on Hela cells saturated with Fe(III)-citrate (in words),"Hela cells; chelator 50 μM, Fe(III)-citrate 50 μM",almost no anti-proliferative activity
same,HeLa cancer cells died,"Hela cells; free ligand 50 μM, no ferric citrate",~80%
O=C(O)CNC(Cc1ccc([N+](=O)[O-])cc1)CN1CCN(CC(=O)O)CCN(CC(=O)O)CC1.[203Pb] (centres unmarked) [^203Pb-C-NE3TA],stability in human serum (in words),"[1]; 37° C., up to 11 days",no measurable loss of radioactivity
same,radionuclide dissociated from the complex,[1]; in 1 day,~40%
O=C([O-])CN1CCN(CCN(CC(=O)[O-])CC(=O)[O-])CCN(CC(=O)[O-])CCN(CC(=O)[O-])CC1.[Bi+3] [^205/6Bi-DEPA],"Radiolabled Complex, in vitro serum stability (Table 1)",[2]; 0 h,100
same,"Radiolabled Complex, in vitro serum stability (Table 1)",[2]; 0.5 h,100
same,"Radiolabled Complex, in vitro serum stability (Table 1)",[2]; 1 h,100
same,"Radiolabled Complex, in vitro serum stability (Table 1)",[2]; 2 h,100
same,"Radiolabled Complex, in vitro serum stability (Table 1)",[2]; 4 h,100
same,"Radiolabled Complex, in vitro serum stability (Table 1)",[2]; 6 h,100
same,"Radiolabled Complex, in vitro serum stability (Table 1)",[2]; 24 h,100
same,"Radiolabled Complex, in vitro serum stability (Table 1)",[2]; 48 h,100
same,"Radiolabled Complex, in vitro serum stability (Table 1)",[2]; 96 h,100
same,"Radiolabled Complex, in vitro serum stability (Table 1)",[2]; 120 h,100
same,"Radiolabled Complex, in vitro serum stability (Table 1)",[2]; 192 h,100
same,"Radiolabled Complex, in vitro serum stability (Table 1)",[2]; 288 h,100
same,"Radiolabled Complex, in vitro serum stability (Table 1)",[2]; 336 h,100
same,serum stability of 205/6Bi complex (in words),[2]; 14 days,no radioactivity was released over 14 days; also recorded: very stable in human serum for 2 weeks
same,bone accumulation of the radioactivity,[3]; 0.5 h,2.02±0.96 % ID/gm
same,bone accumulation of the radioactivity,[3]; 1 h,0.38±0.09 % ID/gm
same,% ID/g in the kidneys,[3]; 24 h post injection,0.36±0.03 % ID/g
same,% ID/g in the spleen,[3]; 24 h post injection,0.39±0.07 % ID/g
same,Radioactivity detected in the blood and the organs,"[3]; all time points, 0.5-24 h post-injection",less than 2.44 % ID/g
same,in vivo stability and clearance (in words),[3]; normal athymic mice,essentially inert in vivo and rapidly cleared from the body
